From US9186358B2, “Combination therapy for treating or preventing an inflammatory skin disorder” (GALDERMA LABORATORIES, L.P., priority 2009, dated 2015)

What was measured:
[1] = test system: TPA-induced ear edema; assay: TPA-induced ear edema in mice; type: in vivo, mice (BALB/c ByJ Rj); design: Ear Edema Mean: unit not given beside the values; settings: single topical application with TPA 0.01%, 6 h
Description: The edema inducer, TPA, was dissolved in ethanol at 0.01% by weight to obtain a TPA solution (“TPA solution”). […] Positive control compound, betametasone valerate (CD0153), was dissolved in the TPA solution at 0.01% by weight. […] Different compounds at different dosages were tested on 10 groups of animals, each group having 5 mice (see Table 2). [table] The ear thickness of each of the 50 animals was measured at 6 hours after the compound application. After the measurement, the animals were sacrificed by carbon dioxide following a preapproved protocol. The mean of the ear thickness measured from 5 animals in each of the 10 groups was calculated. The anti-inflammatory activity of a test compound was measured by its ability to reduce TPA-induced ear edema, i.e., as the percentage of reduction in ear thickness of animals treated with both the test compound and TPA as compared with that treated with TPA alone.

[2] = test system: AA-induced ear edema; assay: Arachidonic acid (AA)-induced acute ear edema in mice; type: in vivo, mice (BALB/c ByJ Rj); design: Edema Mean: unit not given here; settings: for reduced AA-induced ear edema in mice by up to: single topical application, highest over 1, 2 and 4 h; for Edema Mean / Inhibition vs AA %: topical with AA 4%
Description: Positive control compound, indomethacin (CD0016), was dissolved in the AA solution at 5% by weight. […] Different compounds at different dosages were tested on 10 groups of animals, each group having 5 mice (see Table 4). […] After the last measurement, the animals were sacrificed by carbon dioxide following a preapproved protocol. The mean of the ear thickness measured from 5 animals in each of the 10 groups was calculated. The anti-inflammatory activity of a test compound was measured by its ability to reduce AA-induced ear edema, i.e., as the percentage of reduction in ear thickness of animals treated with the test compound and AA as compared with that treated with AA alone.

[3] = CD08100/02 at 0.1%, 1 h Measurement
[4] = CD08100/02 at 0.1%, 2 h Measurement
[5] = CD08100/02 at 0.1%, 4 h Measurement
[6] = CD08100/02 at 0.3%, 1 h Measurement
[7] = CD08100/02 at 0.3%, 2 h Measurement
[8] = CD08100/02 at 0.3%, 4 h Measurement
[9] = CD08100/02 at 1%, 1 h Measurement
[10] = CD07805 at 0.2%, 1 h Measurement
[11] = CD07805 at 0.2%, 2 h Measurement
[12] = CD07805 at 0.2%, 4 h Measurement

O=C(O)Cc1ccccc1Nc1c(Cl)cccc1Cl [CD08100/02, 2-[2-(2,6-dichlorophenylamino)phenyl]acetic acid]
Ear Edema Mean ([1]; CD08100/02 at 0.1%): 5.80 | Inhibition vs TPA (%) ([1]; CD08100/02 at 0.1%): 63.8% | Ear Edema Mean ([1]; CD08100/02 at 0.3%): 6.40 | Inhibition vs TPA (%) ([1]; CD08100/02 at 0.3%): 60.0% | Ear Edema Mean ([1]; CD08100/02 at 1%): 4.80 | Inhibition vs TPA (%) ([1]; CD08100/02 at 1%): 70.0% | reduced AA-induced ear edema in mice by up to ([2]; CD08100/02 at 0.1%): up to 71.2% | Edema Mean [2, 3]: 4.2 | Inhibition vs AA % [2, 3]: 63.8% | Edema Mean [2, 4]: 3 | Inhibition vs AA % [2, 4]: 71.2% | Edema Mean [2, 5]: 2 | Inhibition vs AA % [2, 5]: 67.7% | reduced AA-induced ear edema in mice by up to ([2]; CD08100/02 at 0.3%): ≤ 80.6% | Edema Mean [2, 6]: 3.6 | Inhibition vs AA % [2, 6]: 69.0% | Edema Mean [2, 7]: 2.2 | Inhibition vs AA % [2, 7]: 78.8% | Edema Mean [2, 8]: 1.2 | Inhibition vs AA % [2, 8]: 80.6% | reduced AA-induced ear edema in mice by up to ([2]; CD08100/02 at 1%): ≤ 83.9% | Edema Mean [2, 9]: 2 | Inhibition vs AA % [2, 9]: 82.8% | Edema Mean ([2]; CD08100/02 at 1%, 2 h Measurement): 1 | Edema Mean ([2]; CD08100/02 at 1%, 4 h Measurement): 1

COc1ccc2c(c1)c(CC(=O)O)c(C)n2C(=O)c1ccc(Cl)cc1 [CD0016, indomethacin]
reduced AA-induced ear edema in mice by up to ([2]; CD0016 at 5%): up to 94.2% | Edema Mean ([2]; CD0016 at 5%, 1 h Measurement): 0.8 | Inhibition vs AA % ([2]; CD0016 at 5%, 1 h Measurement): 93.1% | Edema Mean ([2]; CD0016 at 5%, 2 h Measurement): 0.6 | Inhibition vs AA % ([2]; CD0016 at 5%, 2 h Measurement): 94.2% | Edema Mean ([2]; CD0016 at 5%, 4 h Measurement): 0.4 | Inhibition vs AA % ([2]; CD0016 at 5%, 4 h Measurement): 93.5%

Brc1c(NC2=NCCN2)ccc2nccnc12 [CD07805, (5-bromo-quinoxalin-6-yl)-(4,5-dihydro-1H-imidazol-2-yl)-amine]
Ear Edema Mean ([1]; CD07805 at 0.2%): 8.60 | Inhibition vs TPA (%) ([1]; CD07805 at 0.2%): 46.3% | reduced AA-induced ear edema in mice by up to ([2]; CD07805 at 0.2%): up to 80.8% | Edema Mean [2, 10]: 2.8 | Inhibition vs AA % [2, 10]: 75.9% | Edema Mean [2, 11]: 2 | Inhibition vs AA % [2, 11]: 80.8% | Edema Mean [2, 12]: 1.6 | Inhibition vs AA % [2, 12]: 74.2%

CCCCC(=O)O[C@]1(C(=O)CO)[C@@H](C)C[C@H]2[C@@H]3CCC4=CC(=O)C=C[C@]4(C)[C@@]3(F)[C@@H](O)C[C@@]21C [CD0153, betametasone valerate]
Ear Edema Mean ([1]; CD0153 at 0.01%): 0.40 | Inhibition vs TPA (%) ([1]; CD0153 at 0.01%): 97.5%
